Experimental data from US20080004282A1, “Compositions and methods for modulating gated ion channels” (PainCeptor Pharma Corporation, priority 2006, published 2008).
Where two headings read alike, the source gives them in different places.

Molecular target: T1, ASIC1a (Homo sapiens, UniProt P78348)
T1 sequence (P78348 1-528): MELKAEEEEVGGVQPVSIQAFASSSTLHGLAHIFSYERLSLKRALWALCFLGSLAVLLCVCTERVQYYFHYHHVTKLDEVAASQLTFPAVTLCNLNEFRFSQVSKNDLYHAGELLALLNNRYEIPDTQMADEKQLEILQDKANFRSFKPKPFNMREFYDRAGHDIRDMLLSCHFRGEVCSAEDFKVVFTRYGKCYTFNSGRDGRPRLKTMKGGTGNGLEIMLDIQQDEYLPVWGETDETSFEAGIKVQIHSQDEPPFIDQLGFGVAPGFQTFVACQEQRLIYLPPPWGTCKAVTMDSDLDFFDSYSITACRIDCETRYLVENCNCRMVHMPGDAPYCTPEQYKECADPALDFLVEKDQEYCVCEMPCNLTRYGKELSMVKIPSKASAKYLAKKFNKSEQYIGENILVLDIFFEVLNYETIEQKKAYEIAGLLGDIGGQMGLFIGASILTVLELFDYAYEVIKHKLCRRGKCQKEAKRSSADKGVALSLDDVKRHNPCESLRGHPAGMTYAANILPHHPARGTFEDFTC
Test: Whole cell patch clamp in HEK293 cells transfected with hASIC1a
Type: cell-based
Design: expressed in transfected cells; host or cells: Xenopus laevis oocytes, nuclear microinjection of an expression vector such as pCDNA3
From the text: Screening and Bioanalysis of ASIC Antagonists in Heterologous Expression Systems
This example describes another in vitro assessment of the activity of the compounds of the present invention.
Another example of an in vitro assessment method consists of using mammalian heterologous expression systems, which are known to the skilled in the art, and include a variety of mammalian cell lines such as COS, HEK, e.g., HEK293 and/or CHO, cells. Cell lines are transfected with gated ion channel(s) and used to perform electrophysiology as follows:
All experiments are performed at room temperature (20-25° C.) in voltage clamp using conventional whole cell patch clamp methods (Neher, E., et al. (1978) Pfluegers Arch 375:219-228). […]
Coverslips with the cells are transferred to a 15 μl experimental chamber mounted on the stage of an inverted microscope (IMT-2, Olympus) supplied with Nomarski optics. […] The cells are held at a holding voltage of −60 mV and at the start of each experiment the current is continuously measured for 45 s to ensure a stable baseline. […] Current amplitudes are measured at the peak of the responses, and effect of the compounds is calculated as the amplitude at compound equilibrium divided by the amplitude of the current evoked by the pulse just before the compound is included. […]

Compound | IC50 | IC50 (HEK293 cells, whole cell patch clamp, six point dose-response, read-out: IC50, inhibition of acid-induced hASIC1a activity)
CCN1CCc2c(-c3cc(Cl)ccc3OC)cc(C#N)c(N)c2C1 [Compound 44] | 5.1 µM | –
CCN1CCc2c(-c3ccccc3)cc(C#N)c(N)c2C1 [Compound 12, 8-Amino-2-ethyl-5-phenyl-1,2,3,4-tetrahydro-isoquinoline-7-carbonitrile] | – | 4 µM
